row,melting point,Compound
1,246 °C,COc1cc2nc(-c3ccc(Cl)cc3)nc(NCCN(C(C)C)C(C)C)c2cc1OC.Cl.Cl
2,225 °C,COc1cc2nc(-c3ccc(Cl)cc3)nc(N3CCN(Cc4ccccc4)CC3)c2cc1OC.Cl.Cl
3,278 °C,COc1cccc(CNc2nc(-c3ccc(C)cc3)nc3cc(OC)c(OC)cc23)c1.Cl
4,256 °C,COc1cccc(CCNc2nc(-c3ccc(C)cc3)nc3cc(OC)c(OC)cc23)c1.Cl
5,202 °C,COc1cc2c(NCCO)nc(-c3ccc(Cl)cc3)nc2c(OC)c1OC.Cl
6,157 °C,"COc1ccccc1N1CCN(c2nc(-c3ccc(Cl)cc3)nc3c(OC)c(OC)c(OC)cc23)CC1 [Example 10, 2-(4-Chlorophenyl)-4-(4-(2-methoxyphenyl)piperazino)-6,7,8-trimethoxyquinazoline]"
7,242 °C,"COc1cc2nc(-c3ccc(Cl)cc3)nc(NCCCn3ccnc3)c2cc1OC [Example 21, 2-(4-Chlorophenyl)-4-(3-(1-imidazolyl)propylamino)-6,7-dimethoxyquinazoline]"
8,252 °C,"COc1cc2nc(-c3ccc(Cl)cc3)nc(NC3CCN(Cc4ccccc4)CC3)c2cc1OC [Example 22, 2-(4-Chlorophenyl)-4-((1-benzylpiperidin-4-yl)amino)-6,7-dimethoxyquinazoline]"
9,231 °C,"COc1cc2nc(-c3ccc(Cl)cc3)nc(NC3CC(C)(C)NC(C)(C)C3)c2cc1OC [Example 26, 2-(4-Chlorophenyl)-4-((2,2,6,6-tetramethylpiperidin-4-yl)amino)-6,7-dimethoxyquinazoline]"
10,210 °C,"COc1cc2nc(-c3ccc(Cl)cc3)nc(NCCCN3CCCC3=O)c2cc1OC [Example 27, 2-(4-Chlorophenyl)-4-(3-(2-oxopyrrolidino)propylamino)-6,7-dimethoxyquinazoline]"
11,198 °C,"COc1cc2nc(-c3ccc(Cl)cc3)nc(N3CCN(CC(=O)N4CCOCC4)CC3)c2cc1OC [Example 30, 2-(4-Chlorophenyl)-4-(4-(morpholinocarbonylmethyl)piperazino)-6,7-dimethoxyquinazoline]"
12,270 °C (dec.),"COc1cc2nc(-c3ccc(Cl)cc3)nc(NCC(=O)O)c2cc1OC [Example 34, N-(2-(4-Chlorophenyl)-6,7-dimethoxyquinazolin-4-yl)aminoacetic Acid]"
13,81 °C,"COc1cc2nc(-c3ccc(C)cc3)nc(NCCN(C(C)C)C(C)C)c2cc1OC [Example 40, 2-(4-Methylphenyl)-4-(2-diisopropylaminoethylamino)-6,7-dimethoxyquinazoline]"
14,129 °C,"COc1cc2nc(-c3ccc(Cl)cc3)nc(N(C)CCO)c2cc1OC [Example 41, 2-(4-Chlorophenyl)-4-(N-(2-hydroxyethyl)-N-methylamino)-6,7-dimethoxyquinazoline]"
15,176 °C,"COc1cc2nc(-c3ccc(C(F)(F)F)cc3)nc(N3CCN(CCO)CC3)c2cc1OC [Example 43, 2-(4-Trifluoromethylphenyl)-4-(4-(2-hydroxyethyl)piperazino)-6,7-dimethoxyquinazoline]"
16,139 °C,"COc1cc2nc(-c3ccc(C(F)(F)F)cc3)nc(N3CCN(C)CC3)c2cc1OC [Example 45, 2-(4-Trifluoromethylphenyl)-4-(4-methylpiperazino)-6,7-dimethoxyquinazoline]"
17,216 °C,"COc1cc2nc(-c3ccc(Cl)cc3)nc(NCCc3ccc(Oc4ccccc4)cc3)c2cc1OC [Example 46, 2-(4-Chlorophenyl)-4-(2-(4-phenoxyphenyl)ethylamino)-6,7-dimethoxyquinazoline]"

row,melting point,Compound
1,196 °C,"COC(=O)CNc1nc(-c2ccc(Cl)cc2)nc2cc(OC)c(OC)cc12 [Example 47, 2-(4-Chlorophenyl)-4-((methoxycarbonylmethyl)amino)-6,7-dimethoxyquinazoline]"
2,178 °C,"COc1cc2nc(-c3ccc(Cl)cc3)nc(N3CCOCC3)c2cc1OC [Example 48, 2-(4-Chlorophenyl)-4-morpholino-6,7-dimethoxyquinazoline]"
3,200 °C,"COc1cc2nc(-c3ccc(C)cc3)nc(N3CCOCC3)c2cc1OC [Example 49, 2-(4-Methylphenyl)-4-morpholino-6,7-dimethoxyquinazoline]"
4,207 °C,"COc1cc2nc(-c3ccc(C(F)(F)F)cc3)nc(N3CCOCC3)c2cc1OC [Example 50, 2-(4-Trifluoromethylphenyl)-4-morpholino-6,7-dimethoxyquinazoline]"
5,208 °C,"COc1cc2nc(-c3ccc(C)cc3)nc(NCc3ccncc3)c2cc1OC [Example 51, 2-(4-Methylphenyl)-4-((4-pyridylmethyl)amino)-6,7-dimethoxyquinazoline]"
6,196 °C,"COc1cc2nc(-c3ccc(C)cc3)nc(NCc3ccccn3)c2cc1OC [Example 52, 2-(4-Methylphenyl)-4-((2-pyridylmethyl)amino)-6,7-dimethoxyquinazoline]"
7,204 °C,"COc1cc2nc(-c3ccc(C)cc3)nc(NCCc3ccccn3)c2cc1OC [Example 53, 2-(4-Methylphenyl)-4-((2-(2-pyridyl)ethyl)amino)-6,7-dimethoxyquinazoline]"
8,262 °C,"COc1cc2c(NCc3cccnc3)nc(-c3ccc(Cl)cc3)nc2c(OC)c1OC [Example 54, 2-(4-Chlorophenyl)-4-((3-pyridylmethyl)amino)-6,7,8-trimethoxyquinazoline]"
9,153 °C,"COc1cc2c(N3CCOCC3)nc(-c3ccc(Cl)cc3)nc2c(OC)c1OC [Example 55, 2-(4-Chlorophenyl)-4-morpholino-6,7,8-trimethoxyquinazoline]"
10,156 °C,"COc1cc2c(N3CCNCC3)nc(-c3ccc(Cl)cc3)nc2c(OC)c1OC [Example 56, 2-(4-Chlorophenyl)-4-piperazino-6,7,8-trimethoxyquinazoline]"
11,202 °C,"COc1cc2c(NCCO)nc(-c3ccc(Cl)cc3)nc2c(OC)c1OC [Example 57, 2-(4-Chlorophenyl)-4-(2-hydroxyethylamino)-6,7,8-trimethoxyquinazoline]"
12,165 °C,"COCCNc1nc(-c2ccc(Cl)cc2)nc2c(OC)c(OC)c(OC)cc12 [Example 58, 2-(4-Chlorophenyl)-4-(2-methoxyethylamino)-6,7,8-trimethoxyquinazoline]"
13,245 °C,"COc1cc2c(NCCCn3ccnc3)nc(-c3ccc(Cl)cc3)nc2c(OC)c1OC [Example 59, 2-(4-Chlorophenyl)-4-(3-(1-imidazolyl)propylamino)-6,7,8-trimethoxyquinazoline]"
14,176 °C,"COc1cc2c(N3CCN(C)CC3)nc(-c3cc(C(F)(F)F)cc(C(F)(F)F)c3)nc2c(OC)c1OC [Example 62, 2-(3,5-Bistrifluoromethylphenyl)-4-(4-methylpiperazino)-6,7,8-trimethoxyquinazoline]"
15,128 °C,"COc1cc2c(NCCN(C(C)C)C(C)C)nc(-c3cc(C(F)(F)F)cc(C(F)(F)F)c3)nc2c(OC)c1OC [Example 63, 2-(3,5-Bistrifluoromethylphenyl)-4-(2-diisopropylaminoethylamino)-6,7,8-trimethoxyquinazoline]"
16,170 °C,"COc1cc2c(N3CCOCC3)nc(-c3cc(C(F)(F)F)cc(C(F)(F)F)c3)nc2c(OC)c1OC [Example 64, 2-(3,5-Bistrifluoromethylphenyl)-4-morpholino-6,7,8-trimethoxyquinazoline]"

# — patent publication US6613772B1, “Substituted 2-aryl-4-amino-chinazolines, method for the production and use thereof as medicaments” (Aventis Pharma Deutschland GmbH, priority 1997, dated 2003)
